Assay results reported in patent US20130261132A1, “CALCIUM-SENSING RECEPTOR-ACTIVE COMPOUNDS” (LEO PHARMA A/S, priority 2010, published 2013).

Each compound was assayed against T1, human CaSR (Homo sapiens, UniProt P41180) (assay: Functional whole cell assay (modulation of human CaSR), IP1 accumulation in CHO-K1 cells). Conditions: CHO-K1 cells stably expressing human CaSR, final Ca2+ 1.9 mM, IP1 readout; concentration producing 50% of maximum agonistic response.
T1 sequence (P41180 20-1078): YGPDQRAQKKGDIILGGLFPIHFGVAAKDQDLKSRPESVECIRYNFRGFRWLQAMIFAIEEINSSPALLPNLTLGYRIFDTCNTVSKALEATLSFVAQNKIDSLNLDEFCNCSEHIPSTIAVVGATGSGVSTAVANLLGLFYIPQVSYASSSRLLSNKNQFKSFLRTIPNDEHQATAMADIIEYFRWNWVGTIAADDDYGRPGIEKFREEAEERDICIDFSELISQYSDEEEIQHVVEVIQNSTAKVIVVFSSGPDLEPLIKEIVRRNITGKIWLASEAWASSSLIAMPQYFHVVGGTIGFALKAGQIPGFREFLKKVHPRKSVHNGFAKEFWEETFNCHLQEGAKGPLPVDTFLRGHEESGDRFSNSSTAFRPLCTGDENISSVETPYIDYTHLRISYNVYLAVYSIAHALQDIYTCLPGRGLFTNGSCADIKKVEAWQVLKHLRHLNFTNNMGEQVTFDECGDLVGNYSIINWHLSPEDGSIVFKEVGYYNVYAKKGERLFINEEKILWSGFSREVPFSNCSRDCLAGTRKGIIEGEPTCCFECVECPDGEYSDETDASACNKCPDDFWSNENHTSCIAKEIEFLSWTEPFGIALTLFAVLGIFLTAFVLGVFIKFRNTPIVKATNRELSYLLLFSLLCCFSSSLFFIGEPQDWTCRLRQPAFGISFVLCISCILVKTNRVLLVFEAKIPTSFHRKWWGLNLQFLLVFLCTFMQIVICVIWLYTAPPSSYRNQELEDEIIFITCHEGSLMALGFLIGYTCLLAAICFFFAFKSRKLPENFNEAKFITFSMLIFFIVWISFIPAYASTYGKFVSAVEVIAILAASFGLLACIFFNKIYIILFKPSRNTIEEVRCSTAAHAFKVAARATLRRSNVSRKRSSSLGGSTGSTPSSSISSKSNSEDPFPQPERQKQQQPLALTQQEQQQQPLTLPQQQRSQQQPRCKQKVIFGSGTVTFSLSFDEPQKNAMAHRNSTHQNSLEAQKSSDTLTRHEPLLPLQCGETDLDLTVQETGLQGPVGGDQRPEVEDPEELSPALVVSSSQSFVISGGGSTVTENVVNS
Type: cell-based
Description: The assay investigates a compound's functional ability to act as a biological positive modulator on the human CaSR. Activation of the receptor expressed on CHO-K1 cells is detected through the G alpha q pathway, the activation of phospholipase C and the accumulation of intracellular inositol phosphate (IP) as described earlier [Sandrine Ferry, Bruno Chatel, Robert H. Dodd, Christine Lair, Danielle Gully, Jean-Pierre Maffrand, and Martial Ruat. Effects of Divalent Cations and of a Calcimimetic on Adrenocorticotropic Hormone Release in Pituitary Tumor Cells. Biochemical and biophysical research Communications 238, 866-873 (1997)]. The human CaSR is stably expressed on a CHO-K1 cell clone, stimulated with a basal level of calcium and challenged with the tested compound. The level of IP1 is determined using the IP-One Terbium htrf kit (Cisbio, France). CHO-K1 cells not transfected with the CaSR fail to elicit an IP1 response upon calcium and/or compound stimulation.
The ORF coding for the human CaSR (genebank: NM_000388) was acquired from Invitrogen Corp, USA and subsequently cloned into the mammalian expression vector pCDA3.1.
CHO-K1 cells were transfected using Lipofectamine according to manufacturer's protocol (400.000 cells/well were seeded in a 6-well plate and transfected after 24 hours using 2 μg DNA and 5 μl lipofectamine). After another 24 hours the cells were detached, seeded and subjected to 1 mg/ml of G-418. Following 7 days growth single clones were picked, the CaSR expression evaluated using the 5C10 antibody against CaSR, the clones with the highest expression were selected and tested for functional response. The preferred clone was cultured according to standard procedures described in ATCC (American Type Culture Collection) protocols for CHO-K1 with the addition of 500 μg/ml G-418.
On the assay day, cells were thawed, harvested and resuspended to 4*10^6 cells/ml in stimulation buffer (containing: Hepes 10 mM, MgCl2 0.5 mM, KCl 4.2 mM, NaCl 146 mM, glucose 5.5 mM, LiCl 50 mM, BSA 0.5% at pH 7.4). Ten μl cell solution was pipetted into wells of a white 384-well plate (Perkin Elmer Optiplate) containing 2 μl compound diluted in assay buffer (containing: Hepes 10 mM, MgCl2 0.5 mM, KCl 4.2 mM, NaCl 146 mM, glucose 5.5 mM, LiCl 50 mM, CaCl2 11.4 mM at pH 7.4), resulting in a final Ca^2+ concentration of 1.9 mM. After compound stimulation for 1 hour at 37° C. and 15 min at room temperature, 10 ul of IP-One assay detection reagent (prepared as described by the IP-One assay kit manufacturer) was added and the plate was incubated for another 1 hour at room temperature. Finally the plate was read using a Perkin Elmer EnVision, according to the protocol supplied by the IP-One assay kit manufacturer. The FRET ratio was calculated by dividing the 665 nm emission signal with that of the 615 nm.
The molar concentration of a compound that produces 50% of the maximum agonistic response (the […] value) is calculated according to the equation “General sigmoidal curve with Hill slope, a to d” (Equation 1). This model describes a sigmoidal curve with an adjustable baseline. The equation can be used to fit curves where response is either increasing or decreasing with respect to the independent variable, X. […]
y=(a−d)/(1+(x/c)̂b)+d Equation 1 x=concentration of tested compound […]
a=min response as compound concentration approaches 0 d=max response as concentration of tested compound is increasing […]
b=Hill coefficient or curve slope

EC50, < 200 nM:
COc1cc([C@@H](C)N[C@H]2CC[C@@H](c3ccc(OCC(=O)NCCNCCO)cc3)C2)ccc1F [Compound 106, 2-[4-[(1R,3S)-3-[[(1R)-1-(4-Fluoro-3-methoxy-phenyl)ethyl]-amino]-cyclopentyl]phenoxy]-N-[2-(2-hydroxyethylamino)ethyl]acetamide]
COc1cc([C@@H](C)N[C@H]2CC[C@@H](c3ccc(OCC(=O)N4CCN(C(C)=O)CC4)cc3)C2)ccc1F [Compound 109, 1-(4-Acetylpiperazin-1-yl)-2-[4-[(1R,3S)-3-[[(1R)-1-(4-fluoro-3-methoxy-phenyl)ethyl]amino]cyclopentyl]phenoxy]ethanone]
C[C@@H](N[C@H]1CC[C@@H](c2ccc(OCC(=O)NC3CCNCC3)cc2)C1)c1cccc2ccccc12 [Compound 112, 2-[4-[(1R,3S)-3-[[(1R)-1-(1-Naphthyl)ethyl]amino]cyclopentyl]-phenoxy]-N-(4-piperidyl)acetamide]
COc1cc([C@@H](C)N[C@H]2CC[C@@H](c3ccc(OCC(=O)NCCS(N)(=O)=O)cc3)C2)ccc1F [Compound 104, 2-[4-[(1R,3S)-3-[[(1R)-1-(4-Fluoro-3-methoxy-phenyl)ethyl]-amino]-cyclopentyl]phenoxy]-N-(2-sulfamoylethyl)acetamide]
COc1cc([C@@H](C)N[C@H]2CC[C@@H](c3ccc(OCC(=O)NCCNS(C)(=O)=O)cc3)C2)ccc1F [Compound 108, 2-[4-[(1R,3S)-3-[[(1R)-1-(4-Fluoro-3-methoxy-phenyl)ethyl]-amino]-cyclopentyl]phenoxy]-N-[2-(methanesulfonamido)ethyl]acetamide]
COc1cc([C@@H](C)N[C@H]2CC[C@@H](c3ccc(OCC(=O)N4CCNCC4)cc3)C2)ccc1F [Compound 103, 2-[4-[(1R,3S)-3-[[(1R)-1-(4-Fluoro-3-methoxy-phenyl)ethyl]-amino]-cyclopentyl]phenoxy]-1-piperazin-1-yl-ethanone]
COc1cc([C@@H](C)N[C@H]2CC[C@@H](c3ccc(OCC(=O)N4CCN(S(N)(=O)=O)CC4)cc3)C2)ccc1F [Compound 110, 4-[2-[4-[(1R,3S)-3-[[(1R)-1-(4-Fluoro-3-methoxy-phenyl)-ethyl]-amino]cyclopentyl]phenoxy]acetyl]piperazine-1-sulfonamide]
